Measured values: ChEMBL document CHEMBL1134903, “Synthesis and SAR of azalide 3,6-ketal aromatic derivatives as potent Gram-positive and Gram-negative antibacterial agents” (Bioorg Med Chem Lett, 2002)
Values after ≈ are worked out from the molar mass of the structure shown.

Tests used:
Assay type in all cases: functional
Staphylococcus aureus [1] = assay: Minimum inhibitory concentration against Staphylococcus aureus
Pasteurella multocida = assay: Minimum inhibitory concentration against Pasteurella multocida
Escherichia coli = assay: Minimum inhibitory concentration against Escherichia coli
Staphylococcus aureus [2] = assay: Colony forming units of Staphylococcus aureus intramammary infection (IMI) model was determined at a dose of 15 mg/kg
Staphylococcus aureus [3] = assay: Effective dose required to inhibit Staphylococcus aureus intraperitoneal (IP) infection model

Structure (SMILES)	MIC (Staphylococcus aureus [1])	MIC (Pasteurella multocida)	MIC (Escherichia coli)	Log CFU (Staphylococcus aureus [2])	ED50 (Staphylococcus aureus [3])
CC[C@H]1OC(=O)[C@H](C)[C@H]2OC3(CCN(C(=O)c4ccoc4)CC3)O[C@](C)(C[C@@H](C)CN[C@H](C)[C@@H](O)[C@]1(C)O)[C@H](O[C@@H]1O[C@H](C)C[C@H](N(C)C)[C@H]1O)[C@H]2C	0.78 µg/mL (≈ 1.04 µM)	0.05 µg/mL (≈ 0.0665 µM)	0.78 µg/mL (≈ 1.04 µM)	2.6	11 mg/kg
CC[C@H]1OC(=O)[C@H](C)[C@H]2OC3(CCN(CCc4ccc(OC)cc4)CC3)O[C@](C)(C[C@@H](C)CN[C@H](C)[C@@H](O)[C@]1(C)O)[C@H](O[C@@H]1O[C@H](C)C[C@H](N(C)C)[C@H]1O)[C@H]2C	0.2 µg/mL (≈ 0.253 µM)	0.01 µg/mL (≈ 0.0126 µM)	0.2 µg/mL (≈ 0.253 µM)		
CC[C@H]1OC(=O)[C@H](C)[C@H]2OC3(CCN(C(=O)c4ccccc4)CC3)O[C@](C)(C[C@@H](C)CN(C)[C@H](C)[C@@H](O)[C@]1(C)O)[C@H](O[C@@H]1O[C@H](C)C[C@H](N(C)C)[C@H]1O)[C@H]2C		0.1 µg/mL (≈ 0.129 µM)	3.13 µg/mL (≈ 4.03 µM)		
CC[C@H]1OC(=O)[C@H](C)[C@H]2OC3(CCN(CCc4ccccc4)CC3)O[C@](C)(C[C@@H](C)CN[C@H](C)[C@@H](O)[C@]1(C)O)[C@H](O[C@@H]1O[C@H](C)C[C@H](N(C)C)[C@H]1O)[C@H]2C	0.39 µg/mL (≈ 0.512 µM)	0.03 µg/mL (≈ 0.0394 µM)	0.1 µg/mL (≈ 0.131 µM)		> 20 mg/kg
CC[C@H]1OC(=O)[C@H](C)[C@H]2OC3(CCN(C(=O)c4cnc5ccccc5c4)CC3)O[C@](C)(C[C@@H](C)CN(C)[C@H](C)[C@@H](O)[C@]1(C)O)[C@H](O[C@@H]1O[C@H](C)C[C@H](N(C)C)[C@H]1O)[C@H]2C	0.39 µg/mL (≈ 0.472 µM)	0.1 µg/mL (≈ 0.121 µM)	6.25 µg/mL (≈ 7.56 µM)		> 20 mg/kg
CC[C@H]1OC(=O)[C@H](C)[C@H]2OC3(CCN(C(=O)c4ccco4)CC3)O[C@](C)(C[C@@H](C)CN(C)[C@H](C)[C@@H](O)[C@]1(C)O)[C@H](O[C@@H]1O[C@H](C)C[C@H](N(C)C)[C@H]1O)[C@H]2C		0.05 µg/mL (≈ 0.0653 µM)	0.78 µg/mL (≈ 1.02 µM)	3.3	> 20 mg/kg
CC[C@H]1OC(=O)[C@H](C)[C@H]2OC3(CCN(CCc4ccnc5ccccc45)CC3)O[C@](C)(C[C@@H](C)CN[C@H](C)[C@@H](O)[C@]1(C)O)[C@H](O[C@@H]1O[C@H](C)C[C@H](N(C)C)[C@H]1O)[C@H]2C	0.2 µg/mL (≈ 0.246 µM)	0.05 µg/mL (≈ 0.0615 µM)	1.56 µg/mL (≈ 1.92 µM)		> 20 mg/kg
CC[C@H]1OC(=O)[C@H](C)[C@H]2OC3(CCN(C(=O)c4ccc(-c5ccccc5)cc4)CC3)O[C@](C)(C[C@@H](C)CN[C@H](C)[C@@H](O)[C@]1(C)O)[C@H](O[C@@H]1O[C@H](C)C[C@H](N(C)C)[C@H]1O)[C@H]2C	0.78 µg/mL (≈ 0.931 µM)	0.2 µg/mL (≈ 0.239 µM)	6.25 µg/mL (≈ 7.46 µM)		
CC[C@H]1OC(=O)[C@H](C)[C@H]2OC3(CCN(CCc4ccc5ccccc5n4)CC3)O[C@](C)(C[C@@H](C)CN(C)[C@H](C)[C@@H](O)[C@]1(C)O)[C@H](O[C@@H]1O[C@H](C)C[C@H](N(C)C)[C@H]1O)[C@H]2C	0.39 µg/mL (≈ 0.472 µM)	0.03 µg/mL (≈ 0.0363 µM)	0.78 µg/mL (≈ 0.943 µM)		> 20 mg/kg
CC[C@H]1OC(=O)[C@H](C)[C@H]2OC3(CCN(CCc4ccc(Cl)c(Cl)c4)CC3)O[C@](C)(C[C@@H](C)CN[C@H](C)[C@@H](O)[C@]1(C)O)[C@H](O[C@@H]1O[C@H](C)C[C@H](N(C)C)[C@H]1O)[C@H]2C	0.39 µg/mL (≈ 0.469 µM)	0.05 µg/mL (≈ 0.0602 µM)	3.13 µg/mL (≈ 3.77 µM)		
CC[C@H]1OC(=O)[C@H](C)[C@H]2OC3(CCN(CCc4ccoc4)CC3)O[C@](C)(C[C@@H](C)CN(C)[C@H](C)[C@@H](O)[C@]1(C)O)[C@H](O[C@@H]1O[C@H](C)C[C@H](N(C)C)[C@H]1O)[C@H]2C		0.03 µg/mL (≈ 0.0392 µM)	0.2 µg/mL (≈ 0.261 µM)		
CC[C@H]1OC(=O)[C@H](C)[C@H]2OC3(CCN(CCc4cccc(OC)c4)CC3)O[C@](C)(C[C@@H](C)CN(C)[C@H](C)[C@@H](O)[C@]1(C)O)[C@H](O[C@@H]1O[C@H](C)C[C@H](N(C)C)[C@H]1O)[C@H]2C	0.6 µg/mL (≈ 0.744 µM)	0.03 µg/mL (≈ 0.0372 µM)	0.2 µg/mL (≈ 0.248 µM)		> 20 mg/kg
CC[C@H]1OC(=O)[C@H](C)[C@H]2OC3(CCN(CCc4ccc(C#N)cc4)CC3)O[C@](C)(C[C@@H](C)CN(C)[C@H](C)[C@@H](O)[C@]1(C)O)[C@H](O[C@@H]1O[C@H](C)C[C@H](N(C)C)[C@H]1O)[C@H]2C	0.78 µg/mL (≈ 0.974 µM)	0.03 µg/mL (≈ 0.0374 µM)	0.39 µg/mL (≈ 0.487 µM)		22 mg/kg
CC[C@H]1OC(=O)[C@H](C)[C@H]2OC3(CCN(CCc4ccccc4OC)CC3)O[C@](C)(C[C@@H](C)CN(C)[C@H](C)[C@@H](O)[C@]1(C)O)[C@H](O[C@@H]1O[C@H](C)C[C@H](N(C)C)[C@H]1O)[C@H]2C	0.39 µg/mL (≈ 0.484 µM)	0.03 µg/mL (≈ 0.0372 µM)	0.1 µg/mL (≈ 0.124 µM)		> 20 mg/kg
CC[C@H]1OC(=O)[C@H](C)[C@H]2OC3(CCN(CCc4ccccc4OC)CC3)O[C@](C)(C[C@@H](C)CN[C@H](C)[C@@H](O)[C@]1(C)O)[C@H](O[C@@H]1O[C@H](C)C[C@H](N(C)C)[C@H]1O)[C@H]2C	0.39 µg/mL (≈ 0.492 µM)	0.03 µg/mL (≈ 0.0379 µM)	0.1 µg/mL (≈ 0.126 µM)		
